Marks after values point to notes of the source that are not given here. Blank lines part the entries; values can stand above or below the compound they belong to.
Legend:
[1] = Solubility of cholecalciferol and cholecalciferol phosphate (disodium, acid); format: physicochemical; details: visual solubility
Method: Aliquots of cholecalciferol, cholecalciferol phosphate disodium, and cholecalciferol phosphate acid were added to a range of solvents including propylene glycol (PG), distilled water, methanol, ethyl acetate, ethanol, n-hexane, and the visual solubility was determined. A precise assessment of the saturation solubility was for some of the solvent systems was made using high-performance liquid chromatography (HPLC). In the HPLC solubility studies, an excess of each solute was added into 2 mL of each test solvent. The solutions were left stirring overnight at room temperature, (RT), 22° C. The saturation of the solutions was confirmed by the visual appearance of crystals and the drug suspensions were filtered through 0.2 μm cellulose acetate syringe filters, diluted with excess of mobile phase, and the solute concentration of each sample was assessed using HPLC.

[2] = Chemical stability of cholecalciferol phosphate acid in skin permeation solvents; format: physicochemical; details: 24 h, 37° C.
Method: To assess the chemical stability of the cholecalciferol phosphate acid in the solutions employed in the skin permeation experiments a 1 mg/mL solution of cholecalciferol phosphate acid in propylene glycol (PG) was prepared and incubated at 37° C. for 24 hours. In addition 100 μg/mL cholecalciferol phosphate acid in 90:10 methanol:water and in 80:20 PG:water were also incubated at 37° C. for 24 hours. The concentration pre and post incubation was compared to determine the chemical stability during the permeation studies.

[3] = Cholecalciferol phosphate adhesive suitability / compatibility screen; format: physicochemical
Method: Pre-formulation studies were performed to determine the compatibility of cholecalciferol phosphate (disodium and acid forms) with a range of adhesives (Table 38) that could be used to manufacture of the patch. The compatibility of the drugs with the patch excipients was assessed through checking the clarity of the mixture.
The compatibility of the adhesive with solvents and drug was established. The maximum drug loading in the adhesive following solvent evaporation was determined by mixing the drug, adhesive and co-solvents until a clear solution is obtained at different drug:adhesive ratios by placing a drop of solution onto patch backing sheet, leaving the slide to dry for 3-4 hours and examining the formed fil on the surface of the backings for evidence of drug crystals were assessed using KKmoon digital magnifier with LED light (China). Following patch optimization, the drug-adhesive solution was cast as 10×10 cm squares using of backing (3M™ Scotchpak™ Polyester Backing Film Laminate 9730). A sufficient volume of the adhesive was applied to achieve a target coating of 8 mg/cm^2. Following complete drying of the solvents, the adhesive layer was covered by M3 Release liner (SCOTCHPAK 9755), compressed, and then cut using 34 mm circular manual die cutter (SCP Super Cutting Press).

[4] = Solubility of iron chloride hexahydrate and iron complexes (visual / assayed); format: physicochemical; details: visual (*)
Method in brief: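 Visual screen across solvents, then quantitation with excess complex by one of three incubations: 48 h shaking at 37 °C, 2 h sonication at 40 °C, or overnight at 50 °C. Iron in the supernatant after centrifugation was measured by Ferrozine assay.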

[5] = Iron adhesive patch skin permeation and deposition; format: in vitro ADME, porcine; details: t-test p value, 0.5
Method: To perform the skin permeation studies, dermatomed skin (1 mm) was glued onto the receiver compartment of the Franz cell that contained 80:20 PG:water. A zero hour sample was taken from the receiver fluid, the patches were placed on top of the skin and held in place by a small weight (8.75 g). The patches that were tested were A2, A3, A4 (Table 16) as well as the existing commercial iron transdermal patch. After 24 hours, the receiver fluid was assayed using the quantitative iron assay and a compatible calibration in the same medium (80:20 PG:water) was used. The skin deposition was determined by removing the dermatomed skin from the donor compartment when the 24 h was completed, chopping into smaller pieces using scissors and incubating with the extraction fluid, ethanol. The samples were then transferred to Eppendorf tubes containing one stainless steel 5 mm bead and loaded into the TissuLyser II (Qiagen, Germany) for 30 min 30 Hz. The samples were centrifuged (5 min at 13,000 rpm) and supernatant assayed for iron content.

[6] = Iron complex adhesive compatibility and loading screen; format: physicochemical
[7] = Iron complex reservoir solvent solubility screening; format: physicochemical; details: Span 80, SDS, Tween 80 and Kolliphore EL
[8] = drug loading 4%, no permeation enhancer
[9] = drug loading 8%, no permeation enhancer
[10] = drug loading 10%, 5.5 mg Transcutol
[11] = drug loading 10%, no permeation enhancer

Solubility ([1]; solvent Ethanol): ~4* mg/mL | Solubility ([1]; solvent Ethyl acetate): <0.1* mg/mL | Solubility ([1]; solvent Hexane): ~40* mg/mL | Solubility ([1]; solvent Methanol (0.1% TFA)): <0.1* mg/mL | Solubility ([1]; solvent PG): ~10* mg/mL | stability in donor, extraction and receiver solvent [2]: appropriate stability | Solubility ([3]; DURO-TAK 87-2052 0.268 mL, 10 mg drug, 0.5 mL hexane, 0.4 mL ethyl acetate): Clear | Solubility ([3]; DURO-TAK 87-9301 100 mg, 5 mg drug, 5 mg dodecyl amine, 0.5 mL methanol, 0.25 mL ethyl acetate): Clear | Solubility ([3]; Duro-TAK 87-2516 100 mg, 10 mg drug, 10 mg dodecyl amine, 0.5 mL methanol, 0.5 mL ethyl acetate): Clear | Solubility ([3]; Duro-TAK 87-2516 100 mg, 10 mg drug, 10 mg dodecyl amine, 1 mL methanol, 1.25 mL ethyl acetate): Clear | Solubility ([3]; Duro-TAK 87-2516 100 mg, 10 mg drug, 10 mg dodecyl amine, 1.5 mL methanol, 1 mL ethyl acetate): Clear | Solubility ([3]; Oppanol B12 1.2 g, 65 mg drug, 15.9 mL hexane): Clear | Solubility ([3]; Oppanol B12 1.2 g, 65 mg drug, 15.9 mL hexane, 65 mg dodecyl amine): Clear | Solubility ([3]; Oppanol B12 2.3 g, 130 mg drug, 32 mL hexane): Clear | compatibility with adhesives and organic solvents ([3]; Oppanol B12, DURO-TAK 87-2516, 87-9301 and 87-2052): showed compatibility
Structure (SMILES): C=C1CCC(OP(=O)(O)O)CC1=CC=C1CCCC2(C)C1CCC2C(C)CCCC(C)C (stereo not drawn) [Cholecalciferol phosphate acid, cholecalciferol phosphate acid]

Solubility of complex (visual) ([4]; Chloroform): <6 mg/mL Iron kojic* | Solubility of complex (visual) ([4]; Ethyl acetate): <6 mg/mL Iron kojic* | Solubility of complex (visual) ([4]; Glycerol): <6 mg/mL Iron kojic* | Solubility of complex (visual) ([4]; Hexane): <6 mg/mL Iron kojic* | Solubility of complex (visual) ([4]; Methanol): ≥18 mg/mL Iron kojic* | Solubility of complex (visual) ([4]; Oleic acid): <6 mg/mL Iron kojic* | Solubility of complex (visual) ([4]; PEG400): <6 mg/mL Iron kojic* | Solubility of complex (visual) ([4]; PG): ≥8 mg/mL Iron kojic* | Solubility of complex (visual) ([4]; Propanol): <6 mg/mL Iron kojic* | Solubility of complex (visual) ([4]; Transcutul): ≥ 8 mg/mL Iron kojic* | Solubility of complex (visual) ([4]; Triaceten): <6 mg/mL Iron kojic* | deposition compared to existing commercial iron transdermal patch [5]: no significant difference | compatibility with adhesives [6]: only compatible with DURO-TAK 9301 | Solubility in DURO-TAK 9301 patch ([6]; drug loading 4%, 2 mg PG): Clear | Solubility in DURO-TAK 9301 patch [6, 8]: Clear | Solubility in DURO-TAK 9301 patch ([6]; drug loading 7%, 8 mg Maltol): Precipitated | Solubility in DURO-TAK 9301 patch ([6]; drug loading 7.5%, 4 mg PG): Precipitated | Solubility in DURO-TAK 9301 patch [6, 9]: Precipitated | Solubility in DURO-TAK 9301 patch ([6]; drug loading 10%, 5.5 mg PG): Precipitated | Solubility in DURO-TAK 9301 patch [6, 10]: Precipitated | Solubility in DURO-TAK 9301 patch [6, 11]: Precipitated | (maximum) complex loading achieved in adhesive ([6]; methanol stock solution 10 mg/mL): 4% | complex loading achieved in adhesive patch ([6]; methanol stock solution 18 mg/mL): 8.5%
Structure (SMILES): O=c1cc(CO)occ1[O-].O=c1cc(CO)occ1[O-].O=c1cc(CO)occ1[O-].[Fe+3] [Iron kojic, iron kojic acid]

Solubility of complex (visual) ([4]; PEG400): <20 mg/mg/mL | Solubility of complex (visual) ([4]; PG): ≥20 mg/mg/mL | Solubility of complex (visual) ([4]; Transcutul): <20 mg/mg/mL | Solubility in DURO-TAK 9301 patch ([6]; drug loading 4%, 2 mg PG): Clear | Solubility in DURO-TAK 9301 patch [6, 8]: Clear | Solubility in DURO-TAK 9301 patch ([6]; drug loading 6%, no permeation enhancer): Precipitated | Solubility in DURO-TAK 9301 patch ([6]; drug loading 7%, 8 mg Maltol): Precipitated | Solubility in DURO-TAK 9301 patch ([6]; drug loading 7.5%, 4 mg PG): Precipitated | Solubility in DURO-TAK 9301 patch [6, 9]: Precipitated | Solubility in DURO-TAK 9301 patch ([6]; drug loading 10%, 5.5 mg PG): Precipitated | Solubility in DURO-TAK 9301 patch [6, 10]: Precipitated | Solubility in DURO-TAK 9301 patch [6, 11]: Precipitated | visual solubility [7]: ≤ 32 mg/mL
Structure (SMILES): Cc1occc(=O)c1[O-].Cc1occc(=O)c1[O-].Cc1occc(=O)c1[O-].[Fe+3] [Iron maltol made at pH 7.4, iron maltol]

Reference: patent US20260306421A1, “SYSTEMS AND METHODS FOR TRANSDERMAN PATCH DELIVERY” (VITAMAX PATCH WHOLESALER LLC, priority 2022, published 2026)
